Reference: patent US8377884B2, “Variants of C-type natriuretic peptides” (Biomarin Pharmaceutical Inc., priority 2007, dated 2013)
Where two headings read alike, the source gives them in different places. Bridge positions count the residues as written; N and C are the ends. Square brackets hold non-standard residues; d marks the D form. Ends that are not written are not given here. Peptide text beside a SMILES is read from it. * marks the point of attachment. Phe(3,4-Cl2) = N[C@@H](Cc1ccc(Cl)c(Cl)c1)C(=O)O; Phe(3-Me) = Cc1cccc(C[C@H](N)C(=O)O)c1; PEO24 = monodispersed, 1.2 kDa; Heptanoyl = CCCCCCC(=O)*; Pentanoyl = CCCCC(=O)*

Key:
[1] = target: T1, NPR-B (Mus musculus, UniProt Q6VVW5); test: Stimulation of cGMP production in NIH3T3 cells; assay type: cell-based, Murine; conditions: for cGMP response relative to 1 uM CNP22 (%) at 0.01 µM: read-out: cGMP Response rel. to 1 uM CNP22, 10 nM; for cGMP response relative to 1 uM CNP22 (%) at 1 µM: read-out: cGMP Response rel. to 1 uM CNP22, 1 uM
T1 construct: Murine NIH3T3 cells express endogenously the CNP signaling receptor, NPR-B; endogenous in cells; host or cells: NIH3T3 (murine fibroblasts)
T1 sequence (Q6VVW5 17-1047): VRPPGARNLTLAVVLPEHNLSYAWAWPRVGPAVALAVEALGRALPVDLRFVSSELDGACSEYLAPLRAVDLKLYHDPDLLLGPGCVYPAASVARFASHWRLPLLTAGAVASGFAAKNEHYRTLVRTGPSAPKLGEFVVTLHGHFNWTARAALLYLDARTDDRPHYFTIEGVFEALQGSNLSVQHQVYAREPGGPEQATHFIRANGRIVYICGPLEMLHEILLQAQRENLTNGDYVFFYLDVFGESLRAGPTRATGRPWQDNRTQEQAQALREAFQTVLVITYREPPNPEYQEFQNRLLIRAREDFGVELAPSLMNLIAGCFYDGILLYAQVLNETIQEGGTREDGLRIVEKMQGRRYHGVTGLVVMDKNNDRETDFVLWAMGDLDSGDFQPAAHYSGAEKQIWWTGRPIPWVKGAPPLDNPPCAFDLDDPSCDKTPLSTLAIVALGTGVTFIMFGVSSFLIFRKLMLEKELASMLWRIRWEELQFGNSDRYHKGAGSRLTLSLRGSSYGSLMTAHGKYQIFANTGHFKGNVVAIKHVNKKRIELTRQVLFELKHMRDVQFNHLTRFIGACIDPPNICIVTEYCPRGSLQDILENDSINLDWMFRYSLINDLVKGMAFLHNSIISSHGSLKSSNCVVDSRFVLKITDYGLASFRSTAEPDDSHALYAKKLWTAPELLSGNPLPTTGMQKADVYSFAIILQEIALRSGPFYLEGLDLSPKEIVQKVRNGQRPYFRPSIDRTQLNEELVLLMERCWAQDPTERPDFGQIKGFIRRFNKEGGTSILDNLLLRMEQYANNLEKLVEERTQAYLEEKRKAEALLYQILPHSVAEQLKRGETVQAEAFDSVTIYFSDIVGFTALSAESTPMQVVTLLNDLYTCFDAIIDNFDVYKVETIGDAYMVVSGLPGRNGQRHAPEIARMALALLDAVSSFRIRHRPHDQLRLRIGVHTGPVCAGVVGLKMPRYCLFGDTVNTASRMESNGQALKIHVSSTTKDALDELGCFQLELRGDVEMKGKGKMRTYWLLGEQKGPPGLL

[2] = target: neutral endopeptidase (NEP) (Homo sapiens, UniProt P08473); test: In vitro neutral endopeptidase (NEP) cleavage assay; conditions: human, pH 7
Procedure: To determine the effects of amino acid substitutions, amino acid extensions, backbone modifications, side chain modifications and PEGylation on the susceptibility of CNP variants to neutral endopeptidase (NEP) cleavage, peptide cleavage assays were carried out using an in vitro assay that monitored disappearance of the non-cleaved CNP variant.
Recombinant human NEP (1 ug/mL final concentration) was added to 100 uM CNP variant diluted in 0.1 M Tris, pH 7. The reaction mixture was incubated at 37° C. for various periods of time, and the reaction was quenched with EDTA (10 mM final) followed by heat denaturation. The reaction mixture was reduced and then the reaction products were analyzed using HPLC and mass spectroscopy. The half-life of the CNP variant was calculated based on the disappearance of intact CNP variant over time.

[3] = recombinant human neutral endopeptidase (NEP)
[4] = NIH3T3 cells, 10 nM natriuretic peptide, normalized to cell number and cGMP production with 1 uM wtCNP22
[5] = NIH3T3 cells, 1 uM natriuretic peptide, normalized to cell number and cGMP production with 1 uM wtCNP22

Sequence of neutral endopeptidase (NEP) (P08473 whole entry): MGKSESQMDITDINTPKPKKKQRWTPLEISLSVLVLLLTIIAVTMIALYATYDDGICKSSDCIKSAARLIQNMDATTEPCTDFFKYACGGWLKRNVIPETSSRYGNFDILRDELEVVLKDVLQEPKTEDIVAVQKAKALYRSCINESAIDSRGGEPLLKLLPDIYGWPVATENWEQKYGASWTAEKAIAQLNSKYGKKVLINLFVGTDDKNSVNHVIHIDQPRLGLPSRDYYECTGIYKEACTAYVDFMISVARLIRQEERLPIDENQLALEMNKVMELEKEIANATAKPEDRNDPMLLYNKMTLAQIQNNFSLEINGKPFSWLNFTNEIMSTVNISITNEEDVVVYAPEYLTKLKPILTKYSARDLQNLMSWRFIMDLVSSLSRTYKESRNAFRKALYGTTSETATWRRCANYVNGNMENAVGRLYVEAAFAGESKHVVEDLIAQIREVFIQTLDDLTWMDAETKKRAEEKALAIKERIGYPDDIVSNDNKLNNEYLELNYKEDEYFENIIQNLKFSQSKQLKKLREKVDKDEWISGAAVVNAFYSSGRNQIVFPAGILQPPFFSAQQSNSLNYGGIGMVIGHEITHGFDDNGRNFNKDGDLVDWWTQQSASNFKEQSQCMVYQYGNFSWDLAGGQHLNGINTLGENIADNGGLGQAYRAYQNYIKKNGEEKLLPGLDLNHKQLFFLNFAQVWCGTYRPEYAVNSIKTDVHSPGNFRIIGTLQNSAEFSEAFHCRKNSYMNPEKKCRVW

Molecule: CC[C@H](C)[C@@H]1NC(=O)[C@H](CCCNC(=N)N)NC(=O)[C@H](CC(=O)O)NC(=O)[C@H](CC(C)C)NC(=O)[C@H](CCCCN)NC(=O)[C@H](CC(C)C)N(C)C(=O)CNC(=O)[C@H](Cc2ccccc2)NC(=O)[C@@H](NC(=O)CNC(=O)[C@H](CCCCN)NC(=O)[C@H](CO)NC(=O)[C@H](CC(C)C)NC(=O)CN)CSSC[C@@H](C(=O)O)NC(=O)CNC(=O)[C@H](CC(C)C)N(C)C(=O)CNC(=O)[C@H](CO)NC(=O)[C@H](CCSC)NC(=O)[C@H](CO)NC(=O)CNC1=O [K]
- cGMP response relative to 1 uM CNP22 (%) at 0.01 µM ([1]; NIH3T3, […]): 1%
- cGMP response relative to 1 uM CNP22 (%) at 1 µM ([1]; NIH3T3, […]): 1%
- half-life at 100 uM [2]: 1.33 h

Molecule: CCCCC(=O)N[C@@H](CCC(=O)O)C(=O)N[C@@H](CC(C)C)C(=O)N[C@@H](CO)C(=O)N[C@@H](CCC(=O)O)C(=O)NCC(=O)N[C@H]1CSSC[C@@H](C(=O)O)NC(=O)CNC(=O)[C@H](CC(C)C)NC(=O)CNC(=O)[C@H](CO)NC(=O)[C@H](CCSC)NC(=O)[C@H](CO)NC(=O)CNC(=O)[C@H]([C@@H](C)CC)NC(=O)[C@H](CCCNC(=N)N)NC(=O)[C@H](CC(=O)O)NC(=O)[C@H](CC(C)C)NC(=O)[C@H](CCCCN)NC(=O)[C@H](CC(C)C)NC(=O)CNC(=O)[C@H](Cc2ccccc2)NC1=O [AV] (Pentanoyl-ELSEGCFGLKLDRIGSMSGLGC-OH; disulfide 6-22 (inferred); C-terminus assumed)
- half-life at 100 uM [2, 3]: 2 h

Molecule: CC[C@H](C)[C@@H]1NC(=O)[C@H](CCCNC(=N)N)NC(=O)[C@H](CC(=O)O)NC(=O)[C@H](CC(C)C)NC(=O)[C@H](CCCCN)NC(=O)[C@H](CC(C)C)NC(=O)CNC(=O)[C@H](Cc2ccc(Cl)c(Cl)c2)NC(=O)[C@@H](NC(=O)CNC(=O)CNC(=O)[C@H](CO)NC(=O)[C@H](CC(C)C)NC(=O)CN)CSSC[C@@H](C(=O)O)NC(=O)CNC(=O)[C@H](CC(C)C)NC(=O)CNC(=O)[C@H](CO)NC(=O)[C@H](CCSC)NC(=O)[C@H](CO)NC(=O)CNC1=O [V] (H-GLSGGC[Phe(3,4-Cl2)]GLKLDRIGSMSGLGC-OH; disulfide 6-22)
- half-life at 100 uM [2, 3]: 1.13 h

Molecule: CCCCCCC(=O)N[C@@H](CCC(=O)O)C(=O)N[C@@H](CC(C)C)C(=O)N[C@@H](CO)C(=O)N[C@@H](CCC(=O)O)C(=O)NCC(=O)N[C@H]1CSSC[C@@H](C(=O)O)NC(=O)CNC(=O)[C@H](CC(C)C)NC(=O)CNC(=O)[C@H](CO)NC(=O)[C@H](CCSC)NC(=O)[C@H](CO)NC(=O)CNC(=O)[C@H]([C@@H](C)CC)NC(=O)[C@H](CCCNC(=N)N)NC(=O)[C@H](CC(=O)O)NC(=O)[C@H](CC(C)C)NC(=O)[C@H](CCCCN)NC(=O)[C@H](CC(C)C)NC(=O)CNC(=O)[C@H](Cc2ccccc2)NC1=O [AW] (Heptanoyl-ELSEGCFGLKLDRIGSMSGLGC-OH; disulfide 6-22; C-terminus assumed)
- half-life at 100 uM [2]: < 0.333 h

Molecule: CC[C@H](C)[C@@H]1NC(=O)[C@H](CCCNC(=N)N)NC(=O)[C@H](CC(=O)O)NC(=O)[C@H](CC(C)C)NC(=O)[C@H](CCCCN)NC(=O)[C@H](CC(C)C)N(C)C(=O)CNC(=O)[C@H](Cc2ccccc2)NC[C@@H](NC(=O)CNC(=O)[C@H](CCCCN)NC(=O)[C@H](CO)NC(=O)[C@H](CC(C)C)NC(=O)CN)CSSC[C@@H](C(=O)O)NC(=O)CNC(=O)[C@H](CC(C)C)N(C)C(=O)CNC(=O)[C@H](CO)NC(=O)[C@H](CCSC)NC(=O)[C@H](CO)NC(=O)CNC1=O [J]
- half-life at 100 uM [2]: 0.833 h

Molecule: CC[C@H](C)[C@@H]1NC(=O)[C@H](CCCNC(=N)N)NC(=O)[C@H](CC(=O)O)NC(=O)[C@H](CC(C)C)NC(=O)[C@H](CCCCN)NC(=O)[C@H](CC(C)C)NC(=O)CNC(=O)[C@H](Cc2cccc(C)c2)NC(=O)[C@@H](NC(=O)CNC(=O)CNC(=O)[C@H](CO)NC(=O)[C@H](CC(C)C)NC(=O)CN)CSSC[C@@H](C(=O)O)NC(=O)CNC(=O)[C@H](CC(C)C)NC(=O)CNC(=O)[C@H](CO)NC(=O)[C@H](CCSC)NC(=O)[C@H](CO)NC(=O)CNC1=O [X] (H-GLSGGC[Phe(3-Me)]GLKLDRIGSMSGLGC-OH; disulfide 6-22)
- half-life at 100 uM [2, 3]: 1.13 h

Molecule: CC[C@H](C)[C@@H]1NC(=O)[C@H](CCCNC(=N)N)NC(=O)[C@H](CC(=O)O)NC(=O)[C@H](CC(C)C)NC(=O)[C@H](CCCCN)NC(=O)[C@H](CC(C)C)NC(=O)CNC(=O)[C@H](Cc2ccccc2)NC(=O)[C@@H](NC(=O)CNC(=O)[C@H](CCCCN)NC(=O)[C@H](CO)NC(=O)[C@H](CC(C)C)NC(=O)CNC(=O)[C@H](CCC(N)=O)NC(=O)[C@H](CCC(N)=O)NC(=O)[C@H](CC(N)=O)NC(=O)[C@H](C)NC(=O)CNC(=O)[C@H](Cc2c[nH]cn2)NC(=O)[C@@H]2CCCN2C(=O)[C@H](Cc2c[nH]cn2)NC(=O)[C@H](CCC(N)=O)NC(=O)[C@H](CCC(=O)O)NC(=O)[C@H](Cc2c[nH]cn2)NC(=O)[C@H](CO)NC(=O)[C@H](Cc2c[nH]cn2)NC(=O)[C@H](Cc2c[nH]cn2)NC(=O)CN)CSSC[C@@H](C(=O)O)NC(=O)CNC(=O)[C@H](CC(C)C)NC(=O)CNC(=O)[C@H](CO)NC(=O)[C@H](CCSC)NC(=O)[C@H](CO)NC(=O)CNC1=O [CQ] (H-GHHSHEQHPHGANQQGLSKGCFGLKLDRIGSMSGLGC-OH; disulfide 21-37 (inferred); N-terminus and C-terminus assumed)
- cGMP response relative to 1 uM CNP22 (%) at 0.01 µM ([1]; NIH3T3, […]): 16%
- cGMP response relative to 1 uM CNP22 (%) at 1 µM ([1]; NIH3T3, […]): 95%

Molecule: PEO24-R-CNP22, K4R: R-CNP22, K4R conjugated at the N-terminus to PEO24 (PEO24-RGLSRGCFGLKLDRIGSMSGLGC; disulfide 7-23 (inferred))
- cGMP Response rel. to 1 uM CNP22, 10 nM [1, 4]: 15 ± 2
- cGMP Response rel. to 1 uM CNP22, 1 uM [1, 5]: 75 ± 12

Molecule: CC[C@H](C)[C@@H]1NC(=O)[C@H](CCCNC(=N)N)NC(=O)[C@H](CC(=O)O)NC(=O)[C@H](CC(C)C)NC(=O)[C@H](CCCCN)NC(=O)[C@H](CC(C)C)NC(=O)[C@H](C(C)C)NC(=O)[C@H](Cc2ccccc2)NC(=O)[C@@H](NC(=O)CNC(=O)[C@H](CCCNC(=N)N)NC(=O)[C@H](CO)NC(=O)[C@H](CC(C)C)NC(=O)CN)CSSC[C@@H](C(=O)O)NC(=O)CNC(=O)[C@H](CC(C)C)NC(=O)CNC(=O)[C@H](CO)NC(=O)[C@H](CCSC)NC(=O)[C@H](CO)NC(=O)CNC1=O [AA] (H-GLSRGCFVLKLDRIGSMSGLGC-OH; disulfide 6-22 (inferred); N-terminus and C-terminus assumed)
- cGMP response relative to 1 uM CNP22 (%) at 0.01 µM [1, 4]: 3%
- cGMP response relative to 1 uM CNP22 (%) at 1 µM [1, 5]: 25%

Molecule: CC[C@H](C)[C@@H]1NC(=O)[C@H](CCCNC(=N)N)NC(=O)[C@H](CC(=O)O)NC(=O)[C@H](CC(C)C)NC(=O)[C@H](CCCCN)NC(=O)[C@H](CC(C)C)NC(=O)CNC(=O)[C@H](Cc2ccccc2)NC(=O)[C@@H](NC(=O)CNC(=O)[C@H](CCCNC(=N)N)NC(=O)[C@H](CO)NC(=O)[C@H](CC(C)C)NC(=O)CNC(=O)[C@H](CCCNC(=N)N)NC(=O)[C@@H]2CCCN2C(=O)[C@H](CC(N)=O)NC(=O)[C@H](C)NC(=O)CN)CSSC[C@@H](C(=O)O)NC(=O)CNC(=O)[C@H](CC(C)C)NC(=O)CNC(=O)[C@H](CO)NC(=O)[C@H](CCSC)NC(=O)[C@H](CO)NC(=O)CNC1=O [CI] (H-GANPRGLSRGCFGLKLDRIGSMSGLGC-OH; disulfide 11-27 (inferred); N-terminus and C-terminus assumed)
- cGMP response relative to 1 uM CNP22 (%) at 0.01 µM [1, 4]: 50 ± 1%
- cGMP response relative to 1 uM CNP22 (%) at 1 µM [1, 5]: 105 ± 12%
